The values below come from patent US12459956B2, “Heterobicyclic carboxamides and uses thereof” (ALCON INC., priority 2019, dated 2025).

Common to all, as to format: biochemical
What all share (conditions): KINASE-GLO luminescent kinase assay
(In Kinase-Glo more light means more ATP remaining.)

One experiment has as its target ROCK2 (Homo sapiens (Human), UniProt O75116). Description: ROCK Kinase Inhibition Assay (ROCK2). As for the experimental part: (§1) All compounds were initially prepared as 10 mM stocks in anhydrous dimethylsulfoxide (DMSO). A 20 μL aliquot of the 10 mM solutions was transferred to individual wells in column 1 of a 96-well polypropylene microtiter plate (Corning #3363) and diluted with DMSO to give a final compound concentration of 4 mM. Test compounds were then serially diluted 1:5 in DMSO for an 11-point concentration response and further diluted in the assay buffer bringing all compound concentrations to a final range of 100 μM to […] in 2.5% DMSO. The assay was performed in white 96-well, flat-bottom, half-area, non-binding assay plate (Corning #3642) in assay buffer consisting of 20 mM HEPES (pH 7.5), 10 mM MgCl2*6H2O, 100 μM sodium orthovanadate, 0.05% CHAPS and 0.1% bovine serum albumin. […] The reaction was initiated by the addition of 10 μL of 4× stock solution ATP (2 μM). Reactions were thoroughly mixed manually, covered and allowed to incubate at room temperature for 75 min. Protein kinase activity was quantitated using Promega's KINASE-GLO™ luminescent Kinase Assay Kit according to the manufacturer's directions. ATP concentrations remaining in Test wells following the termination of the enzymatic reaction were compared against control wells containing equivalent amounts of DMSO containing no inhibitor (CTRL). […] Percent of Control (POC) values were determined for each concentration of compound tested according to the equation: POC=((Test well value−BKG)/(CTRL−BKG))*100 IC50 values were calculated using the following 4-parameter logistic curve-fitting algorithm: f(x)=(A+((B−A)/(1+((x/C)^D)))) IC50 values were converted to Ki values using the following Cheng-Prusoff Equation: Ki=IC50/(1+([ATP]/Km ATP])). JAK Kinase Assays.

A further experiment deals with ROCK1 (Homo sapiens (Human), UniProt Q13464). Description: ROCK Kinase Inhibition Assay (ROCK1). The protocol:
as §1, with “Reactions were thoroughly mixed manually, covered and allowed to incubate at room temperature for 75 min.” left out, “directions.” for “directions. ATP concentrations remaining in Test wells following the termination of the enzymatic reaction were compared against control wells containing equivalent amounts of DMSO containing no inhibitor (CTRL).”, “JAK Kinase Assays.” left out

In a further experiment the target is JAK2 (Homo sapiens (Human), UniProt O60674). Description: JAK Kinase Assay (JAK2).
Another experiment addresses TYK2 (Homo sapiens (Human), UniProt P29597). Description: JAK Kinase Assay (TYK2).
A further experiment has as its target JAK1 (Homo sapiens (Human), UniProt P23458). Description: JAK Kinase Assay (JAK1).

Chain of ROCK2 (O75116 whole entry, species assumed): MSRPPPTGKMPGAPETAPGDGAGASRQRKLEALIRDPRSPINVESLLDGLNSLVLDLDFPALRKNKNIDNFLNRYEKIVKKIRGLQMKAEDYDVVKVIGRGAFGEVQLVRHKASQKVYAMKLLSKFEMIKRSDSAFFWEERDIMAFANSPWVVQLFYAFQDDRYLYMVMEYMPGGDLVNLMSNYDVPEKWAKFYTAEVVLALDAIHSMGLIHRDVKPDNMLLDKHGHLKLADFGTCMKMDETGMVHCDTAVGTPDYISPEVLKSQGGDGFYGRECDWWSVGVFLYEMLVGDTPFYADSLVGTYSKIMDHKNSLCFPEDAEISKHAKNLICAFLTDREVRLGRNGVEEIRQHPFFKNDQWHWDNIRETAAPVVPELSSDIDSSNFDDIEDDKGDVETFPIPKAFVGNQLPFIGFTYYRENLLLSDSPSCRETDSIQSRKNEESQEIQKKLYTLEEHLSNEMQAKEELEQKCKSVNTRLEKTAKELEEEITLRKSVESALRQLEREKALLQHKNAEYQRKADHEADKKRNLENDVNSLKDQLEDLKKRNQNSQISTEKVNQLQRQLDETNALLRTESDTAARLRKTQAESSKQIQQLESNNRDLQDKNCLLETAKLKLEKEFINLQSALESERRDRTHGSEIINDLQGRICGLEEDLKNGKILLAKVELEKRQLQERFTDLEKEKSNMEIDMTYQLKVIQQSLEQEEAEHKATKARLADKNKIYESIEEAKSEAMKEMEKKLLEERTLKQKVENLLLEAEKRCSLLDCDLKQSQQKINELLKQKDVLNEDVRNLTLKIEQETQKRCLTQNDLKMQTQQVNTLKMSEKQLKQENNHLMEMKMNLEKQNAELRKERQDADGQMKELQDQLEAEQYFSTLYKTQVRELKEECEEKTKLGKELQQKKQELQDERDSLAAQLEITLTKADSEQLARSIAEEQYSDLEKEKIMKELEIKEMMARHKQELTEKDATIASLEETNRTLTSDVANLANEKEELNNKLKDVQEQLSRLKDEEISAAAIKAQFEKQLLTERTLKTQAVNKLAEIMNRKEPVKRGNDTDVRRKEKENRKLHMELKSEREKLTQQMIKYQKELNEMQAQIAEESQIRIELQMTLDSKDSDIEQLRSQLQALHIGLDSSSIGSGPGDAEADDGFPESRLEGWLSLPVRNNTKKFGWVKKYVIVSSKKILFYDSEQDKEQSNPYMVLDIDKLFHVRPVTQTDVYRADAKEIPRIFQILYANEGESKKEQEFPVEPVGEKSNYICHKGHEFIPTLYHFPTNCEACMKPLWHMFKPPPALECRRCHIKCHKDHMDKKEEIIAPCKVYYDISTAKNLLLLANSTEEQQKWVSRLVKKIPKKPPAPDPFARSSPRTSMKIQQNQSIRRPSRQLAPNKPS
Chain of TYK2 (P29597 whole entry, species assumed): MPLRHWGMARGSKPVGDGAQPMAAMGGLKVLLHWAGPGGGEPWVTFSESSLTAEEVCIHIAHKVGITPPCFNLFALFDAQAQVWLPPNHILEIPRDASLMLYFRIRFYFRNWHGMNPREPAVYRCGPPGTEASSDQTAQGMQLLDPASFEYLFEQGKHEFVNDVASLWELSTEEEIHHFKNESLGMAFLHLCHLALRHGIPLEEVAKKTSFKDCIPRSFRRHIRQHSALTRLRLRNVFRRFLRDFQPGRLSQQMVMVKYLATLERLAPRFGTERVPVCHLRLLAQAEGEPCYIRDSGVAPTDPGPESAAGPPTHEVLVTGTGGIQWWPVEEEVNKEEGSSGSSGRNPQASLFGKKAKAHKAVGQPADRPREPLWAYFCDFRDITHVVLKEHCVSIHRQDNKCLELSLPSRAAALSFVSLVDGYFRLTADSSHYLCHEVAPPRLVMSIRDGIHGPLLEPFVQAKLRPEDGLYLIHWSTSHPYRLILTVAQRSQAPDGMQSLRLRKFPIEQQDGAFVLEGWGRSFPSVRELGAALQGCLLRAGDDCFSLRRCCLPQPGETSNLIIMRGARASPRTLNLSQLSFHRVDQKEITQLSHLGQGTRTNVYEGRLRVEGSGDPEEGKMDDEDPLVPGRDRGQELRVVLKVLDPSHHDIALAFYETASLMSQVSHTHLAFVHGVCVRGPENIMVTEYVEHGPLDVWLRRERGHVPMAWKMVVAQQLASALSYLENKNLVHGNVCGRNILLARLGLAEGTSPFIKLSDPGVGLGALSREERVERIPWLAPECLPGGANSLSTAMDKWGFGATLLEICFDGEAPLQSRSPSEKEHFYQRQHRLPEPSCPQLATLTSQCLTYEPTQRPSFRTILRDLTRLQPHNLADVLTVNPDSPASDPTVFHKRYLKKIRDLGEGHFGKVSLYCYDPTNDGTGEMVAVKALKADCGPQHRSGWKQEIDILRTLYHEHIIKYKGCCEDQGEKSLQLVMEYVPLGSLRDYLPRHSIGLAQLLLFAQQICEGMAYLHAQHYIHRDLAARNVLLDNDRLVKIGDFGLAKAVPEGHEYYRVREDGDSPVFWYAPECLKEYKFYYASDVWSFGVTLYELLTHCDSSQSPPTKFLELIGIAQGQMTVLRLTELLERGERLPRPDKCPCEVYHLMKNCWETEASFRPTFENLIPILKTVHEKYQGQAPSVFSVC
Chain of JAK2 (O60674 whole entry, species assumed): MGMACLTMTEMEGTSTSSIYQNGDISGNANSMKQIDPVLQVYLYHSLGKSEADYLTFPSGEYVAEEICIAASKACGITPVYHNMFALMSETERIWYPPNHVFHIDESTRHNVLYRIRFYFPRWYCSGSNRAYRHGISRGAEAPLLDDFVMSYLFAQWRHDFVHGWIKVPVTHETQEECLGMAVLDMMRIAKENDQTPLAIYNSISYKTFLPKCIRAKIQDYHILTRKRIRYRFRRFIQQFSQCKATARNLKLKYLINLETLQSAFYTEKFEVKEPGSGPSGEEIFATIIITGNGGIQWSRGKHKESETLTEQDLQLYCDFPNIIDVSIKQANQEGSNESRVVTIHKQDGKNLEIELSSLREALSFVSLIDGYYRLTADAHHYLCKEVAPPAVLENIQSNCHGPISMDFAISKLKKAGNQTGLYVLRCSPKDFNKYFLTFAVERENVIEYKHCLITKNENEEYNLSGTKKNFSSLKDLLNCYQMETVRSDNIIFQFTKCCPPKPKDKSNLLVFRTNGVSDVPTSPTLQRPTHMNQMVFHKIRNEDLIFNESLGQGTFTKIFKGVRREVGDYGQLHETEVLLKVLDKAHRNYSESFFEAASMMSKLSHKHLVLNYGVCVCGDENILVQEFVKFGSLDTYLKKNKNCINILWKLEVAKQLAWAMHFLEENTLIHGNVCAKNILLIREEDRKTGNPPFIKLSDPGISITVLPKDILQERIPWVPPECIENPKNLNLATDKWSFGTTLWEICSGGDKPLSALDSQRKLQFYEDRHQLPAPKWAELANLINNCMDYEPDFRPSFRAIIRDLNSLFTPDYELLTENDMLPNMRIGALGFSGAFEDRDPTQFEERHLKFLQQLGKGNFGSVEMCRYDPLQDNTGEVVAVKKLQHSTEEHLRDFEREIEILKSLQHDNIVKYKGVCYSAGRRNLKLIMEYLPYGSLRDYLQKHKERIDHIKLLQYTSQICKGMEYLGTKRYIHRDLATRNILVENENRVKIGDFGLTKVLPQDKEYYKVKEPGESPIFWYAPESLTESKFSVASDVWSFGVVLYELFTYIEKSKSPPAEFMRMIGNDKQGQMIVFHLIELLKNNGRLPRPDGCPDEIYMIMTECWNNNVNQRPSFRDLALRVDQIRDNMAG
Chain of ROCK1 (Q13464 whole entry, species assumed): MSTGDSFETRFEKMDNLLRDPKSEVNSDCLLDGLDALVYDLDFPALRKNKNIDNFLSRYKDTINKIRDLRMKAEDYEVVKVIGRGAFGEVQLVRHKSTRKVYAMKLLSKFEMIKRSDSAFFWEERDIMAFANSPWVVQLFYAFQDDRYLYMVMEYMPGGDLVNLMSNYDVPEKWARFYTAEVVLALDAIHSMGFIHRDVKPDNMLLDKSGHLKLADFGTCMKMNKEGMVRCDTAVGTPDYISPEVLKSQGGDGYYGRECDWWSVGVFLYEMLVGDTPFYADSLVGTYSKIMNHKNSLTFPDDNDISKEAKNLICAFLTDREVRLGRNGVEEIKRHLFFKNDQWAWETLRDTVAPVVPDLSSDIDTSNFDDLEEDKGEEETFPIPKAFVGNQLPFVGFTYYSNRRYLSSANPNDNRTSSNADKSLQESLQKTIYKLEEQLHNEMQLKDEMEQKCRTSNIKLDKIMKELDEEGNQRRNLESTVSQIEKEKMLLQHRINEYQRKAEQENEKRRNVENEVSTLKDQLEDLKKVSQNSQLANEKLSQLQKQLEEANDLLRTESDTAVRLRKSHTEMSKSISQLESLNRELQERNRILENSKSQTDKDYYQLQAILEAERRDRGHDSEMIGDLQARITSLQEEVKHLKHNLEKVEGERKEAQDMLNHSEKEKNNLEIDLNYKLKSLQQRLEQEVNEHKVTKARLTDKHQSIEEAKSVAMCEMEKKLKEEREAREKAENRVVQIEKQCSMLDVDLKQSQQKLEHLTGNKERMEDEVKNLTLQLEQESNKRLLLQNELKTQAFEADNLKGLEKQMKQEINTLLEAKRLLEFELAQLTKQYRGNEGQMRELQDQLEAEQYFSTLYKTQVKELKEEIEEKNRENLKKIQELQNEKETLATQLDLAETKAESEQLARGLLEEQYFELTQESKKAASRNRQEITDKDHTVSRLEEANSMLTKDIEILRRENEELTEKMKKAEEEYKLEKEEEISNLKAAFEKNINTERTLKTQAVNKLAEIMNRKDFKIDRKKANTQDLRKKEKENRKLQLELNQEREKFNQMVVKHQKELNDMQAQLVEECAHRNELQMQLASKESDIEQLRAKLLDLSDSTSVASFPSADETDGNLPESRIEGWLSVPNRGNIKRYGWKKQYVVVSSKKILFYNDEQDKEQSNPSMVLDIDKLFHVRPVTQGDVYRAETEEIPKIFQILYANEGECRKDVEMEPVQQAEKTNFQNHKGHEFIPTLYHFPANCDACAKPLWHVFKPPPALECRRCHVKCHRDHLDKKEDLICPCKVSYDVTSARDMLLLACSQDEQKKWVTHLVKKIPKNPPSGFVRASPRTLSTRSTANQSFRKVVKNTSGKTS

For the molecule `O=C(Nc1nc2ccncc2s1)[C@@H]1CC1c1ccc(S(=O)(=O)Nc2ccccn2)cc1` (mixture of isomers) [Compound 3], the IC50 at ROCK2 worked out at 6 nM; against ROCK1 it was 7 nM. On to `O=C(Nc1ccc2cnccc2n1)[C@@H]1CC1c1ccc(S(=O)(=O)Nc2ccccn2)cc1` (mixture of isomers) [Compound 4], for which the IC50 was 6 nM at ROCK2 and 22 nM on JAK2. With `Cc1cncc2sc(NC(=O)[C@@H]3C[C@H]3c3ccc(S(=O)(=O)Nc4ccccn4)cc3)cc12` (racemic) [Compound 5], the concentration for half-maximal inhibition (IC50) against JAK2 was 8.9 nM. Turning to `Cc1cncc2sc(NC(=O)C3CC3c3cc(C(=O)NCc4ncccn4)cs3)cc12` (centres unmarked) [Compound 2], at ROCK2, the IC50 is 5 nM. As to `Cc1cncc2sc(NC(=O)[C@@H]3C[C@H]3c3ccc(S(=O)(=O)Nc4ccccn4)cc3)cc12` [Compound 6], at TYK2, the IC50 stood at 8 nM. On TYK2, `O=C(Nc1cc2c(Cl)cncc2s1)[C@@H]1C[C@H]1c1ccc(S(=O)(=O)Nc2ccccn2)cc1` [Compound 7] yielded an IC50 of 1.1 nM. At ROCK2, `O=C(Nc1ccc2cnccc2n1)C1CC1c1ccccc1` (centres unmarked) [Compound 11] gave an IC50 of 7 nM. `O=C(Nc1nc2ccncc2s1)C1CC1c1ccccc1` (centres unmarked) [Compound 12] registered an IC50 against ROCK2 of 12 nM. Same read-out and setting: next, `Cc1cncc2sc(NC(=O)[C@@H]3C[C@H]3c3ccccc3)cc12` [Compound 13]: 18 nM; `Cc1cncc2sc(NC(=O)C3CC3c3ccncc3)cc12` (centres unmarked) [Compound 14]: 230 nM. At JAK1, `O=C(Nc1cc2c(Cl)cncc2s1)[C@@H]1C[C@H]1c1ccccc1` [Compound 15] gave an IC50 of 350 nM. As to `Cc1cncc2sc(NC(=O)C3CC3c3ccccc3)cc12` (centres unmarked) [Compound 16], the IC50 against ROCK2 was 54 nM.

At ROCK2, `O=C(Nc1ccc2cnccc2n1)C1CC1c1ccncc1` (centres unmarked) [Compound 17] yielded a half-inhibitory concentration (IC50) of 30 nM. Same read-out and setting: the value for `O=C(Nc1nc2ccncc2s1)C1CC1c1ccncc1` (centres unmarked) [Compound 18] was 30 nM.

`O=C(Nc1cc2c(Cl)cncc2s1)C1CC1c1ccccc1` (centres unmarked) [Compound 19]: the IC50 against ROCK1 amounted to 43 nM.

Take `O=C(NCc1ncccn1)c1csc(C2CC2C(=O)Nc2cc3c(Cl)cncc3s2)c1` (centres unmarked) [Compound 20]: on TYK2, half-maximal inhibition (IC50) was put at 35 nM. `O=C(Nc1cc2c(Cl)cncc2s1)C1CC1c1ccncc1` (centres unmarked) [Compound 21]: half-maximal inhibition at ROCK2 (IC50) was put at 111 nM. For `O=C(Nc1ccc2cnccc2n1)C1CC1c1ccc(S(=O)(=O)Nc2ccccn2)cc1` (centres unmarked) [Compound 22], the IC50 against JAK2 amounted to 22 nM.

The IC50 is the concentration that inhibits the measured activity by half. Low readings indicate inhibition by little substance, high ones a need for much substance.
